Columns and labels:
Mouse [1] = test: concentration in plasma after dosing; details: 2 h; dosed: 2-Hydroxy-4-methoxybenzophenone; 250 mg/kg; oral; Female; B6C3F1
Mouse [2] = test: concentration in plasma after dosing; details: 2 h; dosed: 2-Hydroxy-4-methoxybenzophenone; 500 mg/kg; oral; Female; B6C3F1
Mouse [3] = test: concentration in plasma after dosing; details: 0.25 h; dosed: 2-Hydroxy-4-methoxybenzophenone; 500 mg/kg; oral; Female; B6C3F1
Mouse [4] = test: concentration in plasma after dosing; details: 10 min; dosed: 2-Hydroxy-4-methoxybenzophenone; 50 mg/kg; iv; Male; B6C3F1
Rat [5] = test: concentration in plasma after dosing; details: dosed: 2-Hydroxy-4-methoxybenzophenone, 100 mg/kg, oral, Female, F344
Mouse [6] = test: concentration in plasma after dosing; details: 0.25 h; dosed: 2-Hydroxy-4-methoxybenzophenone; 250 mg/kg; oral; Male; B6C3F1
Rat [7] = test: concentration in plasma after dosing; details: dosed: Nitrite, 40 mg/kg, oral, Female, F344
Rat [8] = test: concentration in plasma after dosing; details: 10 min; dosed: Nitrite; 40 mg/kg; oral; Male; F344
Rat [9] = test: concentration in plasma after dosing; details: dosed: Nitrite, 20 mg/kg, iv, Male, F344
Rat [10] = test: concentration in plasma after dosing; details: dosed: Nitrite, 20 mg/kg, iv, Male, F344; remark: listed apart in the source
Rat [11] = test: concentration in plasma after dosing; details: dosed: Nitrite, 20 mg/kg, iv, Male, F344; remark: listed apart in the source
Rat [12] = test: concentration in kidney after dosing; details: 3 h; dosed: Perfluorooctanoic acid; 80 mg/kg; oral; Female; Harlan Sprague Dawley
Rat [13] = test: concentration in kidney after dosing; details: 6 h; dosed: Perfluorooctanoic acid; 80 mg/kg; oral; Female; Harlan Sprague Dawley
Rat [14] = test: concentration in plasma after dosing; details: dosed: 678-39-7, 12 mg/kg, iv, Male, F344
Rat [15] = test: concentration in kidney after dosing; details: 24 h; dosed: Perfluorooctanoic acid; 12 mg/kg; oral; Male; Harlan Sprague Dawley
Rat [16] = test: concentration in kidney after dosing; details: 12 h; dosed: Perfluorooctanoic acid; 12 mg/kg; oral; Male; Harlan Sprague Dawley
Rat [17] = test: concentration in kidney after dosing; details: 1 h; dosed: Fluorotelomer alcohol 8+2; 80 mg/kg; oral; Female; Harlan Sprague Dawley
Rat [18] = test: concentration in plasma after dosing; details: dosed: 678-39-7, 40 mg/kg, iv, Male, F344
Rat [19] = test: concentration in liver after dosing; details: 24 h; dosed: Perfluorooctanoic acid; 80 mg/kg; oral; Female; Harlan Sprague Dawley
Rat [20] = test: concentration in brain after dosing; details: 1 h; dosed: Potassium Perfluorobutane Sulfonate; 20 mg/kg; oral; Male; Harlan Sprague Dawley
Rat [21] = test: concentration in liver after dosing; details: 3 h; dosed: Potassium Perfluorobutane Sulfonate; 20 mg/kg; oral; Female; Harlan Sprague Dawley
Rat [22] = test: concentration in plasma after dosing; details: 1.5 h; dosed: Potassium Perfluorobutane Sulfonate; 20 mg/kg; oral; Male; Harlan Sprague Dawley
Rat [23] = test: concentration in plasma after dosing; details: dosed: Potassium Perfluorobutane Sulfonate, 4 mg/kg, iv, Male, F344
Rat [24] = test: concentration in kidney after dosing; details: 0.5 h; dosed: Potassium Perfluorobutane Sulfonate; 20 mg/kg; oral; Female; Harlan Sprague Dawley
Rat [25] = test: concentration in plasma after dosing; details: dosed: Potassium Perfluorobutane Sulfonate, 4 mg/kg, iv, Male, F344; remark: listed apart in the source
Rat [26] = test: concentration in kidney after dosing; details: 12 h; dosed: Potassium Perfluorobutane Sulfonate; 20 mg/kg; oral; Male; Harlan Sprague Dawley
Rat [27] = test: concentration in plasma after dosing; details: dosed: Potassium Perfluorobutane Sulfonate, 4 mg/kg, iv, Male, F344; remark: listed apart in the source
rat [28] = test: concentration in lung after dosing (ugEq/g tissue); details: dosed: benzo[a]pyrene, iv, male, Wistar

COc1ccc(C(=O)c2ccccc2)c(O)c1 [2-Hydroxy-4-methoxybenzophenone]
Details	concentration in plasma [µg/mL]
Mouse [1]	0.0556
Mouse [2]	4.31
Mouse [3]	1.23
Mouse [4]	11.9
Mouse [6]	0.231

Rat [5]
Details	concentration in plasma [µg/mL]
3 h	0.00719
10 min	0.0382

O=N[O-] [Nitrite]
concentration in plasma [µg/mL]
Details	Rat [7]	Rat [9]	Rat [10]	Rat [11]
0.75 h	–	2.3	4.4	4
1 h	4.3	–	–	–
2 h	1.8	–	–	–
2 min	–	21.3	9	2

Details	concentration in plasma [µg/mL]
Rat [8]	2.6

O=C(O)C(F)(F)C(F)(F)C(F)(F)C(F)(F)C(F)(F)C(F)(F)C(F)(F)F [Perfluorooctanoic acid]
Details	concentration in kidney [ng/g]	concentration in liver [ng/g]
Rat [12]	49700	–
Rat [13]	175000	–
Rat [15]	28700	–
Rat [16]	27000	–
Rat [17]	353	–
Rat [19]	–	7880

concentration in plasma [ng/mL]
Details	0.5 h	3 h	9 h	12 h
Rat [14]	235	–	438	–
Rat [18]	219000	1660	–	28000

O=S(=O)([O-])C(F)(F)C(F)(F)C(F)(F)C(F)(F)F.[K+] [Potassium Perfluorobutane Sulfonate]
Details	concentration in brain [ng/g]	concentration in kidney [ng/g]	concentration in liver [ng/g]	concentration in plasma [µg/mL]
Rat [20]	1030	–	–	–
Rat [21]	–	–	5050	–
Rat [22]	–	–	–	70
Rat [24]	–	23200	–	–
Rat [26]	–	3890	–	–

Details	concentration in plasma [ng/mL]
Rat [23], 3 h	305
Rat [23], 5 min	26400
Rat [25], 0.75 h	24500
Rat [25], 24 h	575
Rat [27], 0.5 h	19100
Rat [27], 12 h	1620

c1ccc2c(c1)cc1ccc3cccc4ccc2c1c34 [benzo[a]pyrene]
concentration in lung, rat [28]
Details	2 mg/kg	6 mg/kg	15 mg/kg
0.5 h	1.06	16	25.8
0.75 h	2.68	5.85	13.7
1 h	2.4	2.76	17
1.5 h	1.07	5.3	38.5
2 h	14.7	5.84	37
3 h	0.34	0.4	7.07
4 h	0.04	2.64	22.4
5 h	0.68	12.4	33.2
5 min	5.17	33.9	46
6 h	0.06	6.27	22.6
8 h	9.32	5.09	18.4
10 min	1.31	13.6	26.1
20 min	2.8	17.3	23.4
24 h	–	–	10.2
32 h	–	3.9	15.7
